Read-outs that look alike come from different tables or passages of the source.
Tests used:
[1] = tested on: prolyl oligopeptidase (POP); set-up: method as in ref Zhou XQ et al., Flavonoids from Scutellaria baicalensis and their bioactivities; details: concentration of 100 microM; ref Zhou XQ et al., Flavonoids from Scutellaria baicalensis and their bioactivities; cited from earlier work
A549 cells = tested on: A549 cells; set-up: method as in Li M, et al. Neurosci Lett. 2016; details: vendor library annotation, ref Li M, et al. Neurosci Lett. 2016, read-out: LC50 (the source's name); cited from earlier work
[2] = tested on: human adenovirus type 3 (HAdV-3); set-up: method as in Li M, et al. Neurosci Lett. 2016; details: HAdV-3 in A549 cells; vendor library annotation; ref Li M, et al. Neurosci Lett. 2016; cited from earlier work
aldose reductase = details: aldose reductase; vendor library annotation; ref Aida K, et al. Planta Med, 1990; read-out: IC50; cited from earlier work
[3] = cited from earlier work; for Solubility in water (in words): library annotation
[4] = tested on: human tumor cell line panel; set-up: method as in Huang Y et al., Journal of Natural Products, 1998; details: library annotation, ref Huang Y et al., Journal of Natural Products, 1998; cited from earlier work
CYP3A = tested on: CYP3A; set-up: method as in Wang CP, et al. J Physiol Biochem. 2014 Sep;70(3):735-47; details: ref Wang CP, et al. J Physiol Biochem. 2014 Sep;70(3):735-47; cited from earlier work
SARS-CoV-2 isolate WIV04 = assay: Anti-SARS-CoV-2 activity in vitro, viral yield in Vero E6 supernatant by qRT-PCR; assay type: cell-based, Severe acute respiratory syndrome coronavirus 2; details: for SI: CC50/EC50, SARS-CoV-2 WIV04 in Vero E6; for EC50: SARS-CoV-2 WIV04 MOI 0.01, Vero E6, 24 h.p.i., supernatant qRT-PCR
From the text: To verify the drugs screened through the GX_P2V drug screening alternative model, we repeatedly tested the antiviral activity of the above drugs on SARS-CoV-2. In brief, Vero E6 cells were pre-seeded in 48-well plates at a density of 5×10^4 cells/well and continued to be cultured overnight. Two hours before infection, the culture supernatant of Vero E6 cells was discarded and replaced with a DMEM medium containing different concentration gradient drugs. Vero E6 cells were continued to be cultured for 2 hours, which was conducive to the early entry of the drugs into the cells. Vero E6 cells were infected with WIV04 at a MOI=0.01 for 1 h. After discarding the supernatant, the cells were washed twice with DMEM, and the medium was changed to a DMEM medium (10%FBS) containing the corresponding concentration of the drug. After 24 h.p.i, the cell supernatant was collected. According to the manufacturer’s instructions, the viral RNA was extract using Magnetic Bead Virus RNA Extraction Kits (Shanghai Fine Gene Biotech, FG438). The viral yield in the cell supernatant was then quantified by qRT-PCR using HiSxript II One step qRT-PCR SYBRGreen Kit (Vazyme, Nanjing, China).

GX_P2V NP protein = assay type: cell-based, Pangolin coronavirus
GX_P2V [5] = assay: microbe, parasite or virus in culture; assay type: cell-based, Pangolin coronavirus
[6] = Cytotoxicity, CellTiter-Blue Cell Viability Assay; details: African green monkey
SARS-CoV-2 = tested on: SARS-CoV-2; set-up: method as in Cao et al., 2020; details: SARS-CoV-2 in vitro; ref Cao et al., 2020; cited from earlier work
GX_P2V [7] = assay type: cell-based, Pangolin coronavirus
in vitro = details: African green monkey
Vero E6 cells = assay: Cytotoxicity, CellTiter-Blue Cell Viability Assay; details: Vero E6 cells, CellTiter-Blue
yeast-α-glucosidase = molecular target: yeast-α-glucosidase; set-up: method as in ref Saw C L L et al., Biopharmaceutics & Drug Disposition, 2014, 34(6):303-311; details: ref Saw C L L et al., Biopharmaceutics & Drug Disposition, 2014, 34(6):303-311, cited from earlier work
[8] = Severe acute respiratory syndrome coronavirus 2, Vero C1008, 24 h
[9] = Pangolin coronavirus, Vero C1008, 72 h

COc1c(O)cc2oc(-c3ccc(O)cc3)cc(=O)c2c1O [4', 5,7-trihydroxy-6-methoxyflavone]
inhibition of total prolyl oligopeptidase (POP) activity [1]: 43%

CC(C)(O)[C@@H]1CC[C@](C)([C@H]2[C@@H](O)C[C@@]3(C)[C@@H]4C[C@H](O[C@@H]5O[C@H](CO)[C@@H](O)[C@H](O)[C@H]5O)[C@H]5C(C)(C)[C@@H](O[C@@H]6OC[C@@H](O)[C@H](O)[C@H]6O)CC[C@@]56C[C@@]46CC[C@]23C)O1 [Astragaloside IV]
CC50 (A549 cells): 865 µM
IC50 [2]: 23 µM

O=C(/C=C/c1ccc(O)cc1)c1ccc(O)cc1O [Isoliquiritigenin]
IC50 (aldose reductase): 0.32 µM

COc1ccc(-c2cc(=O)c3c(O)cc(O[C@@H]4O[C@H](CO)[C@@H](O)[C@H](O)[C@H]4O[C@@H]4O[C@@H](C)[C@H](O)[C@@H](O)[C@H]4O)cc3o2)cc1O [Neodiosmin]
aqueous solubility ([3]; ref Mencherini T, et al. Journal of Agricultural and Food Chemistry, 2013, 61(8):1686-1693): 1. Neodiosmin has poor aqueous solubility but exerts a good debittering effect and is a strong antioxidant with potential applications in foods, beverages, and pharmaceutical preparations.

COc1ccc(-c2cc(=O)c3c(OC)c(OC)c(OC)c(OC)c3o2)cc1OC [Nobiletin]
solubility in water ([3]; vendor library annotation, ref Murakami A, et al. Cancer Res, 2000): Nobiletin is a natural polymethoxylated flavone isolated from citrus peels with anti-inflammatory and anti-tumor activities. Nobiletin is practically insoluble (in water) and an extremely weak acidic compound (based on its pKa).

COc1c(O[C@@H]2O[C@H](C(=O)O)[C@@H](O)[C@H](O)[C@H]2O)cc2oc(-c3ccccc3)cc(=O)c2c1O [Oroxylin A 7-O-beta-D-glucuronide]
inhibition of total prolyl oligopeptidase (POP) activity [1]: 34%

CC(C)C1=CC(=O)[C@](C)([C@H]2[C@H](O)C[C@@]3(C)[C@@H]4CC=C5[C@@H](CC[C@@H](O[C@@H]6OC[C@@H](O)[C@H](O)[C@H]6O[C@@H]6O[C@@H](C)[C@H](O)[C@@H](O)[C@H]6O)C5(C)C)[C@]4(C)C(=O)C[C@]23C)O1 [Picfeltarraenin IA]
cytotoxic activity in vitro [4]: 1. Picfeltarraenin IB and Picfeltarraenin IA displayes no cytotoxic activity in vitro human tumor cell line panel.

CC(C)C1=CC(=O)[C@@](C)([C@H]2[C@H](O)C[C@@]3(C)[C@@H]4CC=C5[C@@H](CC[C@@H](O[C@@H]6O[C@H](CO)[C@@H](O)[C@H](O)[C@H]6O[C@@H]6O[C@@H](C)[C@H](O)[C@@H](O)[C@H]6O)C5(C)C)[C@]4(C)C(=O)C[C@]23C)O1 [Picfeltarraenin IB]
cytotoxic activity in vitro [4]: 1. Picfeltarraenin IB and Picfeltarraenin IA displayes no cytotoxic activity in vitro human tumor cell line panel.

COc1cc2c(c(OC)c1OC)-c1c(cc(OC)c(OC)c1OC)C[C@H](C)[C@H](C)C2 [Schizandrin A]
IC50 (CYP3A): 6.6 µM
Ki (CYP3A): 5.83 µM

C=C1CC[C@@H]2[C@](C)(CO)[C@H](O)CC[C@@]2(C)[C@@H]1C/C=C1/C(=O)OC[C@H]1O [andrographolide]
SI (SARS-CoV-2 isolate WIV04): 8.61
EC50 (SARS-CoV-2 isolate WIV04; [8]): 11.1 µM
expression of viral NP protein (GX_P2V NP protein): achieved the same inhibitory effect
SI (GX_P2V [5]; CC50/EC50, GX_P2V in Vero E6): 14.11
EC50 (GX_P2V [5]; [9]): 6.79 µM
CC50 [6]: 95.8 µM
CC50 ([6]; Vero E6 cells): 95.7 µM

C=C1C(=O)O[C@@]23[C@H]1CC[C@@H](C)[C@@H]2CC[C@@]1(C)O[C@@H]31 [arteannuin B]
SI (SARS-CoV-2 isolate WIV04): 9.72
EC50 (SARS-CoV-2 isolate WIV04; [8]): 12 µM
expression of viral NP protein (GX_P2V NP protein): achieved the same inhibitory effect
EC50 (GX_P2V [5]; [9]): 8.84 µM
EC50 (SARS-CoV-2): 10.3 ± 1.12 µM
CC50 [6]: 111 µM
CC50 ([6]; Vero E6 cells): 117 µM

CO[C@H]1O[C@@H]2O[C@@]3(C)CC[C@H]4[C@H](C)CC[C@@H]([C@H]1C)[C@@]24OO3 [artemether, reference compound]
expression of viral NP protein (GX_P2V NP protein): almost completely inhibited
stage of action in time-of-addition assay (GX_P2V [7]): functioned on both entry and post-entry stages
EC50 (GX_P2V [5]; [9]): 3.7 µM
CC50 ([6]; Vero E6 cells): > 200 µM

C[C@H]1[C@H](OC(=O)CCC(=O)O)O[C@@H]2O[C@@]3(C)CC[C@H]4[C@H](C)CC[C@@H]1[C@@]24OO3 [artesunate, reference compound]
SI (SARS-CoV-2 isolate WIV04): 7.84
EC50 (SARS-CoV-2 isolate WIV04; [8]): 16.2 µM
expression of viral NP protein (GX_P2V NP protein): most viral NP proteins can be inhibited
Solubility in water (in words) ([3]; ref Xu N, et al. Int J Med Sci. 2015, 12(6):524-529.): Artesunate is part of the artemisinin group of drugs that treat malaria. It is a semi-synthetic derivative of artemisinin that is water-soluble and may therefore be given by injection. It is on the World Health Organization's List of Essential Medicines.
EC50 (GX_P2V [5]; [9]): 10.1 µM
EC50 (SARS-CoV-2): 13 ± 5.3 µM
CC50 [6]: 127 µM
CC50 ([6]; Vero E6 cells): 127 µM

CCN(CC)CCCC(C)Nc1ccnc2cc(Cl)ccc12 (stereo not shown) [chloroquine]
SI (GX_P2V [5]): > 3.92
EC50 (GX_P2V [5]; [9]): 12.8 µM
CC50 (in vitro): > 50 µM

COc1cc(O)ccc1/C=C/C(=O)c1ccc(O)cc1 [echinatin]
SI (SARS-CoV-2 isolate WIV04): 15.27
EC50 (SARS-CoV-2 isolate WIV04; [8]): 7.86 µM
expression of viral NP protein (GX_P2V NP protein): most viral NP proteins can be inhibited
EC50 (GX_P2V [5]; [9]): 20.9 µM
CC50 [6]: 158 µM
CC50 ([6]; Vero E6 cells): 120 µM

CCN(CCO)CCCC(C)Nc1ccnc2cc(Cl)ccc12 (stereo not shown) [hydroxychloroquine]
SI (GX_P2V [5]; CC50/EC50, GX_P2V in Vero E6): 9.157
EC50 (GX_P2V [5]; [9]): 6.59 µM
CC50 [6]: 60.3 µM

COc1c(/C=C/C(=O)c2ccc(O)cc2)ccc(O)c1O [licochalcone B, Licochalcone B]
SI (SARS-CoV-2 isolate WIV04): 6.86
EC50 (SARS-CoV-2 isolate WIV04): 15.5 µM
expression of viral NP protein (GX_P2V NP protein): most viral NP proteins can be inhibited
SI (GX_P2V [5]): 4.28
EC50 (GX_P2V [5]; read-out: EC50): 24.9 µM
CC50 (Vero E6 cells): 106 µM

O=C(/C=C/c1ccc(O)c2c1[C@@H](C(=O)O[C@H](Cc1ccc(O)c(O)c1)C(=O)O)[C@H](c1ccc(O)c(O)c1)O2)O[C@H](Cc1ccc(O)c(O)c1)C(=O)O [lithospermic acid B]
Solubility in water (in words) ([3]; ref Wang J, et al. Evidence-Based Complementary and Alternative Medicine, 2013, 2013:1-16.): lithospermic acid B is a water-soluble antioxidant from Salvia extract. It plays significant role of antioxidant effect; antiplatelet aggregation, anticoagulant, and antithrombotic effect

Cc1cccc(C)c1OCC(=O)N[C@@H](Cc1ccccc1)[C@@H](O)C[C@H](Cc1ccccc1)NC(=O)[C@H](C(C)C)N1CCCNC1=O [lopinavir]
SI (GX_P2V [5]; CC50/EC50, GX_P2V in Vero E6): > 2.13
EC50 (GX_P2V [5]; [9]): 11.7 µM
CC50 [6]: > 25 µM

CCC/C=C1/OC(=O)c2ccccc21 [n-Butylidenephthalide]
Ki (yeast-α-glucosidase; noncompetitive fashion, read-out: K(i), yeast-α-glucosidase): 4860 µM
IC50 (yeast-α-glucosidase; noncompetitive, read-out: IC(5), inhibition of yeast-α-glucosidase activity): 2350 µM

Cc1c(O)cccc1C(=O)N[C@@H](CSc1ccccc1)[C@H](O)CN1C[C@H]2CCCC[C@H]2C[C@H]1C(=O)NC(C)(C)C [nelfinavir]
SI (GX_P2V [5]; CC50/EC50, GX_P2V in Vero E6): 5.86
EC50 (GX_P2V [5]; [9]): 6.71 µM
CC50 [6]: 39.3 µM

CCC(CC)COC(=O)[C@H](C)N[P@](=O)(OC[C@H]1O[C@@](C#N)(c2ccc3c(N)ncnn23)[C@H](O)[C@@H]1O)Oc1ccccc1 [remdesivir]
SI (GX_P2V [5]; CC50/EC50, GX_P2V in Vero E6): > 33.78
EC50 (GX_P2V [5]; [9]): 0.74 µM
CC50 [6]: > 25 µM

Source: paper PMC8435859 (Frontiers in Cellular and Infection Microbiology, 2021)
